# Experimental data reported in article PMC6127322, “Novel Imidazole and Methoxybenzylamine Growth Inhibitors Affecting Salmonella Cell Envelope Integrity and its Persistence in Chickens” (Scientific Reports, 2018).
# Tests used:
# [1] = tested on: biofilm embedded S. Typhimurium; experiment: MBEC high-throughput assay on biofilm; assay type: cell-based, Salmonella enterica subsp. enterica serovar Typhimurium; settings: 18 hrs incubation; for MBC on biofilm embedded Salmonella: M9 medium; for Cidal concentration on biofilm relative to planktonic MBC: compared to planktonic dose-response in parallel
# Method: The antimicrobial efficacy of the four SMs was tested on biofilm embedded S. Typhimurium as previously described. Briefly, 150 µl of an overnight suspension of S. Typhimurium normalized to 0.05 OD600 in LB medium was transferred into each well of a sterile, non-treated, flat bottom 96-well plate. The plate was covered using the lid containing the pegs (Innovotech), sealed with parafilm, and incubated for 36 hrs at 37 °C. […] The plate was incubated for 18 hrs at 37 °C, 110 rpm in the dark. After incubation, the pegs were transferred to a new 96-well plate containing 200 µl of sterile water and sonicated for 60 min at room temperature (Aquasonic model 50HT, VWR). Removal of the biofilm was confirmed by crystal violet staining. The supernatant was ten-fold serial diluted, plated on an agar plate, and incubated at 37 °C for 36 hrs. The lowest SM concentration giving a complete clearance was considered as MBEC. […] In parallel to this experiment, a dose-response assay with planktonic cells was conducted as described above.
# [2] = tested on: Lactobacillus rhamnosus GG; experiment: Growth of probiotic bacteria at 200 µM; assay type: cell-based; settings: data not shown
# Bifidobacterium longum = experiment: Growth of probiotic bacteria at 200 µM; assay type: cell-based; settings: data not shown
# Salmonella Albany = experiment: Dose-response assay (MBC) on Salmonella serovars; assay type: cell-based; settings: Salmonella enterica; serovar Albany, M9 broth
# [3] = tested on: nine Salmonella serotypes; experiment: Activity spectrum and dose-response across Salmonella serotypes; assay type: cell-based, Salmonella enterica; settings: for MBC: Salmonella, read-out: MBCs among the nine serotypes; for Effect against the nine Salmonella serotypes: 200 µM, M9 broth
# Method: The 128 SMs inhibiting S. Typhimurium growth (20% or higher) were tested for their antimicrobial effect on nine different Salmonella serovars frequently implicated in foodborne gastroenteritis outbreaks. […] Both screens were performed at 200 µM as described in the primary screening. Growth conditions for each strain are described in Supplementary Table S2.
# S. Typhimurium was challenged with a determined concentration of SM as described in the primary screen.
# [4] = tested on: PhoP regulon in S. Typhimurium; design: method as in PubChem bioassay AID #1863, #1981, #2253, and #2401; settings: ref PubChem bioassay AID #1863, #1981, #2253, and #2401; cited from earlier work
# [5] = tested on: avian Mycoplasma gallisepticum; experiment: Activity spectrum on avian pathogens; assay type: cell-based; settings: 100 µM, unpublished data
# Lactobacillus brevis = experiment: Growth of probiotic bacteria at 200 µM; assay type: cell-based; settings: data not shown
# [6] = tested on: Galleria mellonella larvae; experiment: Toxicity on G. mellonella larvae; assay type: in vivo; settings: uninfected larvae, single treatment with 12.5 µg of SM, 72 hrs
# Method: Galleria mellonella larvae (fifth instar stage) were incubated for 12 hrs at 37 °C in the dark. After incubation, only larvae with a white creamy phenotype and a body weight ranging between 225 to 275 mg were selected for the study. […] Larval survival was monitored on 12 hrs intervals. Not treated larvae, larvae treated with the buffer mix, and larvae treated with 12.5 µg of chloramphenicol were used as controls.
# [7] = tested on: S. Typhimurium cell surface; experiment: Scanning electron microscopy (SEM); assay type: cell-based, Salmonella enterica subsp. enterica serovar Typhimurium; settings: 5X MBC for 3 hrs, compared to DMSO control
# Method: Processing of the samples for SEM was performed with the same samples as above and as previously described. Briefly, one volume of bacterial suspension was mixed with one volume of fixative (3% glutaraldehyde, 1% paraformaldehyde in 0.1 M potassium phosphate buffer pH 7.2), and incubated for 2 hrs at 4 °C. Fixed cells were centrifuged for 5 min at 1,200 g, washed twice with 1X PBS, and resuspended into 1% osmium tetroxide for 1 hr at room temperature in the dark, followed by serial dehydration of the sample in ethanol and platinum splatter-coating. Visualization and imaging of the samples was performed using a Hitachi S-4700 scanning electron microscope.
# chicken cecal microbiota = experiment: Cecal microbiota, 16S rRNA sequencing; assay type: in vivo; settings: compared to the DMSO group, P < 0.01
# [8] = tested on: S. Typhimurium cell content; experiment: Loss of 260 nm absorbing materials; assay type: cell-based, Salmonella enterica subsp. enterica serotype Typhimurium; settings: 1 hr, lethal dose (5X MBC), compared to 1% DMSO control
# Method: Figure S2. Estimation of the membrane permeability of Salmonella enterica subsp. enterica serotype Typhimurium strain JSG626 after small molecule (SM) treatment. (A) Crystal […]
# Treatments were normalized based on 10 μg/ml of crystal violet solution (no uptake […]
# different than the 1% DMSO control (P<0.01); n= 9. (B) Loss of 260 nm absorbing materials from S. Typhimurium cell content. 260 nm absorbing materials were measured […]
# standard deviation; *: the amount of 260 nm absorbing material in supernatant was […]
# Both experiments were performed as previously described (1).
# (also on this page, place not known: updtae (%) (ng/µl) Crystal violet 260 nm absorbing material) […]
# [9] = tested on: Campylobacter jejuni 81–176; experiment: Activity spectrum on foodborne pathogens; assay type: cell-based; settings: 200 µM
# [10] = tested on: S. Typhimurium in infected Caco-2, HD11, and THP-1 cell lines; experiment: S. Typhimurium survival in infected cell lines, summary over lines; assay type: cell-based, Salmonella enterica subsp. enterica serotype Typhimurium; settings: over the three cell lines
# Method: The ability of four SMs to clear S. Typhimurium was evaluated using three cell lines (Caco-2 cells, HD11, and THP-1 cells) as previously described. A multiplicity of infection (MOI) of 10 was used. Infected cells were treated with 1 µl of SMs (final concentration ranged between 100 µM and 6.25 µM) and incubated at 37 °C for 24 hrs in humidified, 5% CO2 incubator. Following incubation, cells were washed once with 1X PBS, lysed with 0.1% Triton-100X, serial ten-fold diluted in 1X PBS, and plated on agar plate. Plates were incubated at 37 °C for 24 hrs to determine the intracellular bacteria. Cells not infected and not treated, and cells infected and treated with 2% DMSO were used as controls.
# Salmonella Braenderup = experiment: Dose-response assay (MBC) on Salmonella serovars; assay type: cell-based; settings: Salmonella enterica; serovar Braenderup, M9 broth
# Salmonella Anatum = experiment: Dose-response assay (MBC) on Salmonella serovars; assay type: cell-based; settings: Salmonella enterica; serovar Anatum, M9 broth
Structure (SMILES),MBC on biofilm embedded Salmonella [1] [µM],Effect on growth of Lactobacillus rhamnosus GG [2],Effect on growth of Bifidobacterium longum (Bifidobacterium longum),MBC (Salmonella Albany) [µM],MBC [3] [µM],Activity on the PhoP regulon [4],Effect on Mycoplasma gallisepticum [5],Effect on growth of Lactobacillus brevis (Lactobacillus brevis),Larva survival [6] [%],Cell surface phenotype in SEM [7],Salmonella OTUs in ceca (chicken cecal microbiota),Increase in 260 nm-absorbing material [8] [fold],Cidal concentration on biofilm relative to planktonic MBC [1] [X MBC],Effect against the nine Salmonella serotypes [3],Effect on Campylobacter jejuni 81–176 [9],Concentration clearing internalized Salmonella [10] [µM],MBC (Salmonella Braenderup) [µM],MBC (Salmonella Anatum) [µM]
CCOc1cc(/C=N/N=C(N)N)ccc1OCc1ccc(Cl)cc1 [SM5],25,did not affect the growth,did not affect the growth,100,25 to 100,direct or indirect inhibitor,lethal,did not affect the growth,92,outer membrane vesicles of approximately 100 to 300 nm diameter,reduction,5.25,,,,,,
CC1CCC(C(C)C)C(OC(=O)Cn2c[n+](CC(=O)OC3CC(C)CCC3C(C)C)c3ccccc32)C1 (centres unmarked) [SM1],40,,,,50 to 100,,,,66,distorted,reduction,2.18,0.8,cidal,lethal,,,
CCCCCCCCCCCCCCCC[n+]1ccn(CC#N)c1 [SM3],15,,,25,25 to 50,,lethal,,85,,,7.17,0.6,cidal,,50,25,25
